Results reported in publication PMC9731865, “Gambogic acid and juglone inhibit RNase P through distinct mechanisms” (The Journal of Biological Chemistry, 2022).
Like-named read-outs stand apart in the source and are kept apart here.

Biological target: T1, A. thaliana PRORP1 (Arabidopsis thaliana, UniProt Q66GI4)
T1 construct: made in house
T1 sequence (Q66GI4 77-572): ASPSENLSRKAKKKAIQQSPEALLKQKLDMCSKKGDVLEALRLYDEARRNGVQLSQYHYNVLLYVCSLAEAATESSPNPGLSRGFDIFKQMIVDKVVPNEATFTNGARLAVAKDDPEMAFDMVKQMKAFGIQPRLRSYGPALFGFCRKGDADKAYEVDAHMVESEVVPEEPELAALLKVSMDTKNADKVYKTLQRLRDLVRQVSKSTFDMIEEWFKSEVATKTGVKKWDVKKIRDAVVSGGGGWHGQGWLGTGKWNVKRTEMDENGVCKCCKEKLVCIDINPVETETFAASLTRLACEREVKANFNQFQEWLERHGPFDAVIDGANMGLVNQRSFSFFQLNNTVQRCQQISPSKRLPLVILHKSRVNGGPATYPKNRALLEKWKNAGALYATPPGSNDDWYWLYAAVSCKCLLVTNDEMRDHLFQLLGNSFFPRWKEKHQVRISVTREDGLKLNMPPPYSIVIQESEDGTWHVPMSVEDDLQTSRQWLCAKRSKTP
Test: FP cleavage assay, PRORP1 dose response
Assay type: biochemical
Settings: for activity at 6.25 µM: read-out: PRORP1 Activity (%)
Protocol: Compounds gambogic acid (A) and juglone (B) were incubated with enzyme at double the reaction concentration for 30 min prior to the addition of an equal volume of substrate to initiate the reaction. PRORP1 reactions (shown in green) were performed with 0.3 nM PRORP1 and 800 nM pre-tRNA containing 40 nM Fl-pre-tRNA at 25 °C in 30 mM MOPS pH 7.8, 5 mM MgCl2, 100 mM NaCl, 1 mM TCEP, 500 nM (12 μg/ml) yeast tRNA, 5 mM spermidine, 6.65 μg/ml BSA, and 0.01% NP-40. MRPP1/2/3 reactions (shown in red) were performed using 50 nM MRPP3, 500 nM MRPP1/2, 500 nM pre-tRNA containing 40 nM Fl-pre-tRNA at 37 °C in 50 mM MOPS (pH 7.8), 1 mM TCEP, 4.5 mM MgCl2, and 100 mM NaCl. B. subtilis RNase P reactions (shown in blue) were performed using 20 nM RNase P and 500 nM pre-tRNA containing 40 nM Fl-pre-tRNA at 37 °C in 50 mM Tris, pH 7.2, 5 mM MgCl2, 100 mM KCl, 500 nM (12 μg/ml) yeast tRNA, 20 mM dithiothreitol (DTT), 10 mM spermidine, and 0.01% NP-40. Equation 1 was fit to each dataset.
The activity of PRORP1 catalyzed pre-tRNA cleavage was measured by monitoring the fluorescence anisotropy (FA) signal (λex = 485 nm and λem = 535 nm) over time at 25 °C in buffer conditions optimized for a high-throughput format, 30 mM MOPS pH 7.8, 5 mM MgCl2, 100 mM NaCl, 1 mM TCEP, 500 nM (12 μg/ml) yeast tRNA, 5 mM spermidine, 6.65 μg/ml BSA, and 0.01% NP-40. Yeast tRNA^mix (Roche) was used to reduce the number of compounds that inhibit PRORP1 activity by targeting tRNA. Prior to each reaction, pre-tRNA was heated for 3 min at 95 °C to unfold the RNA and refolded in the reaction buffer at room temperature (25 °C) for 30 min. Reactions were performed in black, 96-well plates (Corning Incorporation, #3686) using a TECAN plate-reader (Infinite F500, G-factor = 1.05) at 25 °C, and the FA values recorded. Reactions were initiated with the addition of substrate to enzyme. Experiments were done in the presence of excess substrate. The concentration of enzyme was 0.3 to 5 nM, the concentration of labeled substrate (Fl-pre-tRNA) was 40 nM, and the concentration of pre-tRNA was 120 to 4000 nM. The concentration of Fl-pre-tRNA was held constant in all reactions.
The dose response was measured using the FP assay as described above with varying concentrations of compound. Compounds were incubated with PRORP1 at twice the reaction concentration for 30 min prior to the addition of equal volumes of substrate to initiate the reaction. Experiments were done under multiple turnover conditions (same buffer conditions as the FP assay). […] PRORP1 activity was determined as a function of inhibitor concentration, and Equation 1 was fit to the data to determine the IC50 value. The standard error of the mean (SEM) is reported from the fit.(1) Activity(%)=100/1+([I]/IC50)^n

[1] = 6.25 μM of inhibitor, FP cleavage assay

## CC(=O)[O][Hg][c]1ccccc1 [phenylmercuric acetate]
[1]
  PRORP1 Activity (%): 32.2%

## O=C1C(Cl)=C(Cl)C(=O)C(Cl)=C1Cl [chloranil]
[1]
  activity at 6.25 µM: 40.2%

## COC(=O)/C(C)=C\C[C@@]12OC(C)(C)[C@@H]3C[C@@H](C=C4C(=O)c5c(O)c6c(c(CC=C(C)C)c5O[C@]431)O[C@](C)(CCC=C(C)C)C=C6)C2=O [methyl gambogate]
  activity at 6.25 µM: 34.8%

## O=C(O)C1=CC(=C(c2ccc(O)c(C(=O)O)c2)c2ccc(O)c(C(=O)O)c2)C=CC1=O [aurintricarboxylic acid]
[1]
  activity at 6.25 µM: 46.5%

## Cc1cc(-c2ccc(/N=N/c3ccc4c(S(=O)(=O)O)cc(S(=O)(=O)O)c(N)c4c3O)c(C)c2)ccc1/N=N/c1ccc2c(S(=O)(=O)O)cc(S(=O)(=O)O)c(N)c2c1O [evans blue]
[1]
  activity at 6.25 µM: 20.2%

## CN(C)c1ccc(C(=C2C=CC(=[N+](C)C)C=C2)c2ccc(N(C)C)cc2)cc1 [gentian violet]
[1]
  activity at 6.25 µM: 0%

## CC1=CC(=O)c2c(O)cccc2C1=O [plumbagin]
[1]
  activity at 6.25 µM: 2.6%

## CC(=O)O[C@@H]1C[C@@]2(C)[C@H](c3ccoc3)C[C@H]3O[C@]32[C@]2(C)C(=O)C(O)=C3C(C)(C)C(=O)C=C[C@]3(C)[C@@H]12 [anthothecol]
[1]
  activity at 6.25 µM: 15.5%
